Data set [1] relates to Cell membrane. As to the kind of experiment: Disruption of cell membrane in Staphylococcus aureus ATCC43300 assessed as increase in DNA leakage. The following applies: dose 1-8 µg/ml.
Another data set concerns Escherichia coli. As to the kind of experiment: Antibacterial activity against Escherichia coli ATCC25922 infected in sepsis mouse model assessed as reduction in kidney damage at 5 to 10 mg/kg pre-infected with bacteria for 1 hrs followed by compound administration at 12 hrs interval for 2 days by H and E staining based analysis. The following applies: dose 5-10 mg/kg, time 2.0 day. The data set is classed as functional, organism-based.

Data set [2] relates to Staphylococcus epidermidis. As to the kind of experiment: Antibacterial activity against erythromycin-susceptible Staphylococcus epidermidis ATCC12228 by broth microdilution assay. The class given is functional.
The subject of data set [3] is Cell membrane. As to the kind of experiment: Disruption of cell membrane in Staphylococcus aureus ATCC43300 assessed as appearance of blue fluorescence by DAPI staining based fluorescence microscopic analysis.
Data set [4] in a line: Cytotoxicity against human L02 cells by CCK8 assay. The data set is classed as toxicity, cell-based.
The nature of data set [5]: Selectivity index, ratio of HC50 for hemolytic activity in red blood cells (unknown origin) to MIC for antibacterial activity against penicillin-resistant Staphylococcus aureus ATCC43300. The class given is toxicity, cell-based, RBC. The following applies: read-out: Selectivity Index.
In data set [6] the test system is Cell membrane. As to the kind of experiment: Induction of outer membrane permeabilization in Escherichia coli ATCC25922 assessed as increase in fluorescence intensity incubated for 20 mins by NPN uptake assay. The data set is classed as subcellular. The following applies: dose 0.5-8 µg/ml.
For data set [7], the system named is Cell membrane. As to the kind of experiment: Induction of inner membrane permeabilization in Escherichia coli ATCC25922 assessed as increase in fluorescence intensity incubated for 20 mins by PI uptake assay. The class given is subcellular. The following applies: dose 0.5-8 µg/ml.
In data set [8] the test system is Cell membrane. As to the kind of experiment: Induction of outer membrane permeabilization in Escherichia coli ATCC25922 assessed as fold increase in fluorescence intensity at 8 microg/ml incubated for 20 mins by NPN uptake assay. The data set is classed as subcellular. Conditions: dose 8.0 µg/ml.

From ChEMBL document CHEMBL6092194, “Development of membrane-targeting chalcone derivatives as antibacterial agents against multidrug-resistant bacteria” (Eur J Med Chem, 2024) come the findings set out here.

Activity calls are given as the source filed them. No cut-off for these calls is given here.

Take `CCCCCCOc1cc[n+](CCCOc2ccc(/C=C/C(=O)c3ccc(OCCC[n+]4ccc(OCCCCCC)cc4)cc3)cc2)cc1.[Br-].[Br-]`: the Activity result with Cell membrane [1], with Cell membrane [6] and in the data set on Cell membrane [7] was “Dose-dependent-effect” throughout. Besides, the outcome in the data set on Escherichia coli and in the data set on Cell membrane [3] was Active. Further, in data set [2], the MIC (commonly the least concentration at which growth counts as inhibited) was found to be 0.5 µg/mL. Also, the CC50 (commonly the concentration that lowers cell viability or growth by half) in data set [4] was 25.9 µg/mL. Also, the selectivity ratio in data set [5] turned out to be 659. Also, the fold change (FC) in the data set on Cell membrane [8] is 2.5.
